The source of these data is US20200187502A1, “MICROBIOCIDAL OXADIAZOLE DERIVATIVES” (SYNGENTA PARTICIPATIONS AG, priority 2017, published 2020).

The structures appear in SMILES notation. Where only a bound is given, the exact number is not on record here.

In the first experiment the test system is Glomerella lacenarium (Colletotrichum lacenarium). Kind of experiment: Fungicidal activity, liquid culture, cucumber preventative (anthracnose). In kind it is cell-based. The following applies: 20 ppm in the applied formulation, liquid culture in PDB, inhibition of growth measured photometrically 3 to 4 days after application, compared to untreated control, read-out: disease control. The protocol:
Mycelia fragments or conidia suspensions of a fungus prepared either freshly from liquid cultures of the fungus or from cryogenic storage, are directly mixed into nutrient broth. DMSO solutions of the test compound (max. 10 mg/ml) are diluted with 0.025% Tween20 by a factor of 50 and 10 μl of this solution is pipetted into a microtiter plate (96-well format). The nutrient broth containing the fungal spores/mycelia fragments is then added to give an end concentration of the tested compound. The test plates are incubated in the dark at 24° C. and 96% relative humidity. The inhibition of fungal growth is determined photometrically after 2 to 7 days, depending on the pathosystem, and percent antifungal activity relative to the untreated check is calculated.
Conidia of the fungus from cryogenic storage are directly mixed into nutrient broth (PDB—potato dextrose broth). After placing a (DMSO) solution of test compound into a microtiter plate (96-well format), the nutrient broth containing the fungal spores is added. The test plates are incubated at 24° C. and the inhibition of growth is measured photometrically 3 to 4 days after application.
The following compounds at 20 ppm in the applied formulation give at least 80% disease control in this test when compared to untreated control under the same conditions, which show extensive disease development.
For `CCN(Cc1ccc(-c2noc(C(F)(F)F)n2)s1)S(=O)(=O)Cc1ccccc1` [Compound 6.13, N-ethyl-1-phenyl-N-[[5-[5-(trifluoromethyl)-1,2,4-oxadiazol-3-yl]-2-thienyl]methyl]methanesulfonamide], the inhibition of growth at 20 ppm is at least 80%.

In the case of `O=C(c1ccccc1Cl)N(Cc1ccc(-c2noc(C(F)(F)F)n2)s1)C1CC1` [Compound 5.35, 2-chloro-N-cyclopropyl-N-[[5-[5-(trifluoromethyl)-1,2,4-oxadiazol-3-yl]-2-thienyl]methyl]benzamide], the inhibition of growth at 20 ppm was at least 80%.

For the molecule `COCCS(=O)(=O)N(Cc1ccc(-c2noc(C(F)(F)F)n2)s1)OC` [Compound 1.40, N,2-dimethoxy-N-[[5-[5-(trifluoromethyl)-1,2,4-oxadiazol-3-yl]-2-thienyl]methyl]ethanesulfonamide], the inhibition of growth at 20 ppm is at least 80%.

Turning to `CON(Cc1ccc(-c2noc(C(F)(F)F)n2)s1)C(=O)n1ccnc1` [Compound 1.3, N-methoxy-N-[[5-[5-(trifluoromethyl)-1,2,4-oxadiazol-3-yl]-2-thienyl]methyl]imidazole-1-carboxamide], the inhibition of growth at 20 ppm was at least 80%.

Consider `O=C(c1ccccc1Cl)N(Cc1ccc(-c2noc(C(F)(F)F)n2)s1)OCC(F)F` [Compound 5.44, 2-chloro-N-(2,2-difluoroethoxy)-N-[[5-(5-(trifluoromethyl)-1,2,4-oxadiazol-3-yl]-2-thienyl]methyl]benzamide], for which the inhibition of growth at 20 ppm is at least 80%.

With `CCN(Cc1ccc(-c2noc(C(F)(F)F)n2)s1)S(=O)(=O)c1ccccc1` [Compound 6.15, N-ethyl-N-[[5-[5-(trifluoromethyl)-1,2,4-oxadiazol-3-yl]-2-thienyl]methyl]benzenesulfonamide], the inhibition of growth at 20 ppm is at least 80%.

Regarding `CC(C)N(Cc1ccc(-c2noc(C(F)(F)F)n2)s1)C(=O)C1(C)CC1` [Compound 5.30, N-isopropyl-1-methyl-N-[[5-[5-(trifluoromethyl)-1,2,4-oxadiazol-3-yl]-2-thienyl]methyl]cyclopropanecarboxamide], the inhibition of growth at 20 ppm is at least 80%.

`COC(=O)CCS(=O)(=O)N(Cc1ccc(-c2noc(C(F)(F)F)n2)s1)OC` [Compound 1.39, methyl 3-[methoxy-[[5-[5-(trifluoromethyl)-1,2,4-oxadiazol-3-yl]-2-thienyl]methyl]sulfamoyl]propanoate]: the inhibition of growth at 20 ppm is at least 80%.

On to `C=CCS(=O)(=O)N(Cc1ccc(-c2noc(C(F)(F)F)n2)s1)OC` [Compound 1.38, N-methoxy-N-[[5-[5-(trifluoromethyl)-1,2,4-oxadiazol-3-yl]-2-thienyl]methyl]prop-2-ene-1-sulfonamide], for which the inhibition of growth at 20 ppm was at least 80%.

As for `CON(Cc1ccc(-c2noc(C(F)(F)F)n2)s1)S(=O)(=O)N1CCCC1` [Compound 1.36, N-methoxy-N-[[5-[5-(trifluoromethyl)-1,2,4-oxadiazol-3-yl]-2-thienyl]methyl]pyrrolidine-1-sulfonamide], the inhibition of growth at 20 ppm was at least 80%.

On to `CC1CC1C(=O)N(Cc1ccc(-c2noc(C(F)(F)F)n2)s1)C(C)C` (stereo not shown) [Compound 5.34, N-isopropyl-2-methyl-N-[[5-[5-(trifluoromethyl)-1,2,4-oxadiazol-3-yl]-2-thienyl]methyl]cyclopropanecarboxamide], for which the inhibition of growth at 20 ppm was at least 80%.

Consider `CC(C)S(=O)(=O)N(C)Cc1ccc(-c2noc(C(F)(F)F)n2)s1` [Compound 6.23, N-methyl-N-[[5-[5-(trifluoromethyl)-1,2,4-oxadiazol-3-yl]-2-thienyl]methyl]propane-2-sulfonamide], for which the inhibition of growth at 20 ppm is at least 80%.

Regarding `CC(C)N(Cc1ccc(-c2noc(C(F)(F)F)n2)s1)S(=O)(=O)N(C)C` [Compound 6.4, N-(dimethylsulfamoyl)-N-[[5-[5-(trifluoromethyl)-1,2,4-oxadiazol-3-yl]-2-thienyl]methyl]propan-2-amine], the inhibition of growth at 20 ppm is at least 80%.

Take `COC(C)C(=O)N(Cc1ccc(-c2noc(C(F)(F)F)n2)s1)OCC(F)F` (stereo not shown) [Compound 4.21, N-(2,2-difluoroethoxy)-2-methoxy-N-[[5-[5-(trifluoromethyl)-1,2,4-oxadiazol-3-yl]-2-thienyl]methyl]propanamide]: the inhibition of growth at 20 ppm was at least 80%.

As for `CON(Cc1ccc(-c2noc(C(F)(F)F)n2)s1)S(C)(=O)=O` [Compound 1.31, N-methoxy-N-[[5-[5-(trifluoromethyl)-1,2,4-oxadiazol-3-yl]-2-thienyl]methyl]methanesulfonamide], the inhibition of growth at 20 ppm was at least 80%.

Turning to `CC(C)N(Cc1ccc(-c2noc(C(F)(F)F)n2)s1)C(=O)CC1CC1` [Compound 5.27, 2-cyclopropyl-N-isopropyl-N-[[5-[5-(trifluoromethyl)-1,2,4-oxadiazol-3-yl]-2-thienyl]methyl]acetamide], the inhibition of growth at 20 ppm is at least 80%.

In the case of `CCN(Cc1ccc(-c2noc(C(F)(F)F)n2)s1)C(=O)c1ccccc1Cl` [Compound 5.8, 2-chloro-N-ethyl-N-[[5-[5-(trifluoromethyl)-1,2,4-oxadiazol-3-yl]-2-thienyl]methyl]benzamide], the inhibition of growth at 20 ppm was at least 80%.

Turning to `CN(C)C(=O)C(=O)N(Cc1ccc(-c2noc(C(F)(F)F)n2)s1)OCC(F)F` [Compound 6.65, N′-(2,2-difluoroethoxy)-N,N-dimethyl-N′-[[5-[5-(trifluoromethyl)-1,2,4-oxadiazol-3-yl]-2-thienyl]methyl]oxamide], the inhibition of growth at 20 ppm is at least 80%.

Turning to `CC1(C(=O)N(Cc2ccc(-c3noc(C(F)(F)F)n3)s2)OCC(F)F)CC1` [Compound 5.48, N-(2,2-difluoroethoxy)-1-methyl-N-[[5-[5-(trifluoromethyl)-1,2,4-oxadiazol-3-yl]-2-thienyl]methyl]cyclopropanecarboxamide], the inhibition of growth at 20 ppm is at least 80%.

For the molecule `CCN(Cc1ccc(-c2noc(C(F)(F)F)n2)s1)C(=O)C(=O)C(C)(C)C` [Compound 6.41, N-ethyl-3,3-dimethyl-2-oxo-N-[[5-[5-(trifluoromethyl)-1,2,4-oxadiazol-3-yl]-2-thienyl]methyl]butanamide], the inhibition of growth at 20 ppm is at least 80%.

In the case of `CC(C)C(=O)N(Cc1ccc(-c2noc(C(F)(F)F)n2)s1)OCC(F)F` [Compound 4.20, N-(2,2-difluoroethoxy)-2-methyl-N-[[5-[5-(trifluoromethyl)-1,2,4-oxadiazol-3-yl]-2-thienyl]methyl]propanamide], the inhibition of growth at 20 ppm is at least 80%.

Take `CCOC(=O)N(Cc1ccc(-c2noc(C(F)(F)F)n2)s1)C(C)C` [Compound 4.12, ethyl N-isopropyl-N-[[5-[5-(trifluoromethyl)-1,2,4-oxadiazol-3-yl]-2-thienyl]methyl]carbamate]: the inhibition of growth at 20 ppm was at least 80%.

`CCCCS(=O)(=O)N(Cc1ccc(-c2noc(C(F)(F)F)n2)s1)C1CC1` [Compound 6.34, N-cyclopropyl-N-[[5-[5-(trifluoromethyl)-1,2,4-oxadiazol-3-yl]-2-thienyl]methyl]butane-1-sulfonamide]: the inhibition of growth at 20 ppm was at least 80%.

On to `CC(C)N(Cc1ccc(-c2noc(C(F)(F)F)n2)s1)C(=O)N1CCCO1` [Compound 5.58, N-isopropyl-N-[[5-[5-(trifluoromethyl)-1,2,4-oxadiazol-3-yl]-2-thienyl]methyl]isoxazolidine-2-carboxamide], for which the inhibition of growth at 20 ppm is at least 80%.

The test system of the next experiment is Puccinia recondita f. Sp. Tritici. The experiment in a line: Fungicidal activity, wheat leaf disc preventative (brown rust). Particulars: foliar, 200 ppm in the applied formulation, wheat leaf segments cv. Kanzler, compared to untreated control, 7 to 9 days after application, read-out: disease control. In kind it is in vivo. The procedure:
Leaf disks or leaf segments of various plant species are cut from plants grown in a greenhouse. The cut leaf disks or segments are placed in multiwell plates (24-well format) onto water agar. The leaf disks are sprayed with a test solution before (preventative) or after (curative) inoculation. Compounds to be tested are prepared as DMSO solutions (max. 10 mg/ml) which are diluted to the appropriate concentration with 0.025% Tween20 just before spraying. The inoculated leaf disks or segments are incubated under defined conditions (temperature, relative humidity, light, etc.) according to the respective test system. A single evaluation of disease level is carried out 3 to 14 days after inoculation, depending on the pathosystem. Percent disease control relative to the untreated check leaf disks or segments is then calculated.
Wheat leaf segments cv. Kanzler were placed on agar in multiwell plates (24-well format) and sprayed with the formulated test compound diluted in water. The leaf disks were inoculated with a spore suspension of the fungus 1 day after application. The inoculated leaf segments were incubated at 19° C. and 75% relative humidity (rh) under a light regime of 12 hours light/12 hours darkness in a climate cabinet and the activity of a compound was assessed as percent disease control compared to untreated when an appropriate level of disease damage appears in untreated check leaf segments (7 to 9 days after application).
The following compounds at 200 ppm in the applied formulation give at least 80% disease control in this test when compared to untreated control leaf disks under the same conditions, which show extensive disease development.
As to `CCN(Cc1ccc(-c2noc(C(F)(F)F)n2)s1)S(=O)(=O)Cc1ccccc1` [Compound 6.13, N-ethyl-1-phenyl-N-[[5-[5-(trifluoromethyl)-1,2,4-oxadiazol-3-yl]-2-thienyl]methyl]methanesulfonamide], the pest or weed control at 200 ppm is at least 80%.

With `O=S(=O)(c1ccccc1)N(Cc1ccc(-c2noc(C(F)(F)F)n2)s1)C1CC1` [Compound 6.36, N-cyclopropyl-N-[[5-[5-(trifluoromethyl)-1,2,4-oxadiazol-3-yl]-2-thienyl]methyl]benzenesulfonamide], the pest or weed control at 200 ppm was at least 80%.

`CN(Cc1ccc(-c2noc(C(F)(F)F)n2)s1)S(=O)(=O)c1ccccc1` [Compound 6.26, N-methyl-N-[[5-[5-(trifluoromethyl)-1,2,4-oxadiazol-3-yl]-2-thienyl]methyl]benzenesulfonamide]: the pest or weed control at 200 ppm was at least 80%.

On to `CCCCS(=O)(=O)N(C)Cc1ccc(-c2noc(C(F)(F)F)n2)s1` [Compound 6.24, N-methyl-N-[[5-[5-(trifluoromethyl)-1,2,4-oxadiazol-3-yl]-2-thienyl]methyl]butane-1-sulfonamide], for which the pest or weed control at 200 ppm is at least 80%.
